Laboratory results as given in patent US10828316B2, “Method of treating bacterial infections” (priority 2016, dated 2020).
Values after ≈ are worked out from the molar mass of the structure shown. Where two headings read alike, the source gives them in different places.

Experiments:
S. sonnei APV00908 = test: MIC; type: cell-based; details: for MIC: Shigella sonnei
S. flexneri APV00906 = test: MIC; type: cell-based; details: for MIC: Shigella flexneri
S. flexneri APV00907 = test: MIC; type: cell-based; details: for MIC: Shigella flexneri
K. pneumoniae EN0262 = details: commercial antibiotics, data provided by IMBIM, BMC, Uppsala University; cited from earlier work
E. coli = details: Ciprofloxacin 14 mg/kg; single mice
[1] = S. sonnei APV00908, read-out: Antibiogram MIC
[2] = S. flexneri APV00906, read-out: Antibiogram MIC
[3] = S. flexneri APV00907, read-out: Antibiogram MIC

C[C@@H](O)[C@H]1C(=O)N2C(C(=O)O)=C(S[C@@H]3CN[C@H](C(=O)Nc4cccc(C(=O)O)c4)C3)[C@H](C)[C@H]12 [Ertapenem]
MIC (S. sonnei APV00908; [1]): ≤ 0.5 µg/mL | MIC (S. flexneri APV00906; [2]): ≤ 0.5 µg/mL | MIC (S. flexneri APV00907; [3]): ≤ 0.5 µg/mL

O=C1CN(/N=C/c2ccc([N+](=O)[O-])o2)C(=O)N1 [Nitrofurantoin]
MIC (S. sonnei APV00908; [1]): ≤ 16 µg/mL | MIC (S. flexneri APV00906; [2]): ≤ 16 µg/mL | MIC (S. flexneri APV00907; [3]): ≤ 16 µg/mL

NCC[C@H](O)C(=O)N[C@@H]1C[C@H](N)[C@@H](O[C@H]2O[C@H](CN)[C@@H](O)[C@H](O)[C@H]2O)[C@H](O)[C@H]1O[C@H]1O[C@H](CO)[C@@H](O)[C@H](N)[C@H]1O [amikacin]
Antibiogram category (S, I, R, R*) (S. sonnei APV00908; S. sonnei APV00908): R* | MIC (S. sonnei APV00908; [1]): 4 µg/mL (≈ 6.83 µM) | Antibiogram category (S, I, R, R*) (S. flexneri APV00906; S. flexneri APV00906): R* | MIC (S. flexneri APV00906; [2]): 16 µg/mL (≈ 27.3 µM) | Antibiogram category (S, I, R, R*) (S. flexneri APV00907; S. flexneri APV00907): R* | MIC (S. flexneri APV00907; [3]): 4 µg/mL (≈ 6.83 µM) | MIC (K. pneumoniae EN0262): 8 µg/mL (≈ 13.7 µM)

CC1(C)S[C@@H]2[C@H](NC(=O)[C@H](N)c3ccccc3)C(=O)N2[C@H]1C(=O)O [ampicillin]
MIC (K. pneumoniae EN0262): >128 µg/mL

C[C@H]1[C@H](NC(=O)/C(=N\OC(C)(C)C(=O)O)c2csc(N)n2)C(=O)N1S(=O)(=O)O [aztreonam]
MIC (K. pneumoniae EN0262): >16 µg/mL

CO/N=C(\C(=O)N[C@@H]1C(=O)N2C(C(=O)[O-])=C(C[N+]3(C)CCCC3)CS[C@H]12)c1csc(N)n1 [cefepime]
MIC (S. sonnei APV00908; [1]): ≤ 1 µg/mL | MIC (S. flexneri APV00906; [2]): 2 µg/mL (≈ 4.16 µM) | MIC (S. flexneri APV00907; [3]): ≤ 1 µg/mL | MIC (K. pneumoniae EN0262): >16 µg/mL

CO/N=C(\C(=O)N[C@@H]1C(=O)N2C(C(=O)O)=C(COC(C)=O)CS[C@H]12)c1csc(N)n1 [cefotaxime]
MIC (S. sonnei APV00908; APV00908, read-out: Antibiogram MIC): ≤ 1 µg/mL | MIC (S. flexneri APV00906; APV00906, read-out: Antibiogram MIC): ≥ 64 µg/mL | MIC (S. flexneri APV00907; APV00907, read-out: Antibiogram MIC): ≤ 1 µg/mL | MIC (K. pneumoniae EN0262): >32 µg/mL

CC(C)(O/N=C(\C(=O)N[C@@H]1C(=O)N2C(C(=O)[O-])=C(C[n+]3ccccc3)CS[C@H]12)c1csc(N)n1)C(=O)O [ceftazidime]
MIC (S. sonnei APV00908; [1]): ≤ 1 µg/mL | MIC (S. flexneri APV00906; [2]): 16 µg/mL (≈ 29.3 µM) | MIC (S. flexneri APV00907; [3]): ≤ 1 µg/mL | MIC (K. pneumoniae EN0262): >32 µg/mL

O=C(O)c1cn(C2CC2)c2cc(N3CCNCC3)c(F)cc2c1=O [ciprofloxacin]
MIC (S. sonnei APV00908; [1]): ≤ 0.5 µg/mL | score at sampling (E. coli): 0 | MIC (S. flexneri APV00906; [2]): ≤ 0.25 µg/mL | MIC (S. flexneri APV00907; [3]): ≤ 0.5 µg/mL | MIC (K. pneumoniae EN0262): >2 µg/mL

C[C@@H](O)[C@H]1C(=O)N2C(C(=O)O)=C(SCCN=CN)C[C@H]12 [imipenem]
MIC (S. sonnei APV00908; [1]): ≤ 0.25 µg/mL | MIC (S. flexneri APV00906; [2]): ≤ 0.25 µg/mL | MIC (S. flexneri APV00907; [3]): ≤ 0.25 µg/mL

C[C@@H](O)[C@H]1C(=O)N2C(C(=O)O)=C(S[C@@H]3CN[C@H](C(=O)N(C)C)C3)[C@H](C)[C@H]12 [meropenem]
MIC (S. sonnei APV00908; [1]): ≤ 0.25 µg/mL | MIC (S. flexneri APV00906; [2]): ≤ 0.25 µg/mL | MIC (S. flexneri APV00907; [3]): ≤ 0.25 µg/mL | MIC (K. pneumoniae EN0262): >8 µg/mL

CCN1CCN(C(=O)N[C@@H](C(=O)N[C@@H]2C(=O)N3[C@@H]2SC(C)(C)[C@@H]3C(=O)O)c2ccccc2)C(=O)C1=O [piperacillin]
MIC (K. pneumoniae EN0262): >256 µg/mL

CN(C)c1cc(NC(=O)CNC(C)(C)C)c(O)c2c1C[C@H]1C[C@H]3[C@H](N(C)C)C(O)=C(C(N)=O)C(=O)[C@@]3(O)C(O)=C1C2=O [tigecycline]
MIC (S. sonnei APV00908; [1]): ≤ 0.5 µg/mL | MIC (S. flexneri APV00906; [2]): ≤ 0.5 µg/mL | MIC (S. flexneri APV00907; [3]): ≤ 0.5 µg/mL | MIC (K. pneumoniae EN0262): 2 µg/mL (≈ 3.41 µM)

colistin
MIC (K. pneumoniae EN0262): 1 µg/mL

gentamicin
Antibiogram MIC (S. sonnei APV00908; S. sonnei APV00908): ≤ 1 µg/mL | Antibiogram category (S, I, R, R*) (S. sonnei APV00908; S. sonnei APV00908): R* | Antibiogram MIC (S. flexneri APV00906; S. flexneri APV00906): 4 µg/mL | Antibiogram category (S, I, R, R*) (S. flexneri APV00906; S. flexneri APV00906): R* | Antibiogram MIC (S. flexneri APV00907; S. flexneri APV00907): ≤ 1 µg/mL | Antibiogram category (S, I, R, R*) (S. flexneri APV00907; S. flexneri APV00907): R* | MIC (K. pneumoniae EN0262): 1 µg/mL

perfloxacin
MIC (K. pneumoniae EN0262): >16 µg/mL
